The results in this text go back to ChEMBL document CHEMBL6177944, “Derivatization of ophiobolin A and cytotoxicity toward breast and glioblastoma cancer stem cells: Varying the ketone and unsaturated aldehyde moieties” (Bioorg Med Chem Lett, 2025).

Calls of active or inactive are those of the source. No cut-off for these calls is given here.

Data set [1] in a line: Selectivity index, ratio of IC50 for cytotoxicity against HMLE cells to IC50 for cytotoxicity against human HMLE cells expressing Twist EMT+. It is filed as toxicity, cell-based. The conditions noted are these: HMLE cells and HMLE cells expressing Twist (EMT+), read-out: Ratio IC50.
Data set [2] can be described thus: (§1) Cytotoxicity against HMLE cells expressing Twist EMT+. The conditions noted are these: Homo sapiens. It is filed as functional, cell-based.
Another data set has as its system MCF7. The experiment in a line: Cytotoxicity against human MCF7 cells. It is filed as functional, cell-based.
The nature of data set [3]: Selectivity index, ratio of IC50 for cytotoxicity against human MCF7 cells to IC50 for cytotoxicity against human MDA-MB-231 cells. The class given is cell-based.
Data set [4] can be described thus: Cytotoxicity against HMLE cells. It is filed as toxicity, cell-based. The conditions noted are these: human.
Another data set concerns MDA-MB-231. The experiment in a line: Cytotoxicity against human MDA-MB-231 cells. It is filed as functional, cell-based.
Data set [5] can be described thus: Cytotoxicity against human GBM43 cells. It is filed as functional, cell-based. The conditions noted are these: GBM43 cell.
Data set [6] is described as follows: Selectivity index, ratio of IC50 for cytotoxicity against human T98G cells to IC50 for cytotoxicity against human GBM43 cells. It is filed as functional.
The next data set concerns T98G. The experiment in a line: Cytotoxicity against human T98G cells. The class given is functional, cell-based.
The subject of another data set is HMLE. The description is as §1. The conditions noted are these: Homo sapiens. It is filed as functional, cell-based.
The nature of data set [7]: Cytotoxicity against HMLE cells assessed as reduction in cell viability at 1 uM relative to control. The class given is toxicity, cell-based. The conditions noted are these: human.

A word on the IC50: it is the concentration that inhibits the measured activity by half. The low end stands for greater potency in that assay, the high end for weaker potency in that assay. Turning to `CC(C)=C[C@H]1C[C@H](C)[C@]2(CC[C@]3(C)C[C@H]4[C@H]5/C(=C\C[C@H]32)CO[C@@]5(O)C[C@@]4(C)O)O1`, in data set [1], the selectivity ratio is about 2.9. Moreover, the IC50 was found to be 8.84 µM in [2], 107 µM in the data set on MCF7, 25.9 µM in data set [4] and 128 µM in the data set on MDA-MB-231. In data set [3], the “Ratio IC50” value is ~ 0.84.
Take `CC(C)=C[C@H]1C[C@H](C)[C@]2(CC[C@]3(C)C[C@H]4[C@H]5/C(=C\C[C@H]32)C(=O)O[C@H]5C[C@@]4(C)O)O1` [OPHIOBOLIN A LACTONE]: the selectivity ratio in [1] is about 1.4. For the same molecule, the IC50 in data set [2] worked out at 63.6 µM; with MCF7, 232 µM; in data set [5] it was 8.6 µM; in data set [4], 91 µM; in the data set on T98G, 102 µM; with MDA-MB-231, 313 µM. Moreover, the entries for the “Ratio IC50” value in data set [3] and in data set [6] were ~ 0.74 and about 12, respectively.
On to `CC1(C)CC/C=C(/C=O)[C@H]2C(=O)C[C@@](C)(O)[C@H]2C1`, for which the IC50 turned out to be 106 µM in [5] and 859 µM with T98G. For the same molecule, in [6], the “Ratio IC50” value is about 8.
Consider `CC(C)=C[C@H]1C[C@H](C)[C@]2(CC[C@]3(C)C[C@H]4[C@H](C(=O)C[C@@]4(C)O)/C(C=O)=C\C[C@H]32)O1` [OPHIOBOLIN A], for which the selectivity ratio in data set [1] is about 2.1. Further, the IC50 amounted to 0.029 µM in data set [2], 0.063 µM in [4] and 1.9 µM with T98G. The “Ratio IC50” value in [6] is given as about 9.
`CC(C)=C[C@H]1C[C@H](C)[C@]2(CC[C@]3(C)C[C@@H]4C(C)=CC(=O)[C@@H]4/C(CO)=C\C[C@H]32)O1`: the IC50 in data set [5] turned out to be 24 µM; in the data set with T98G it was 298 µM. Further, in data set [6], the “Ratio IC50” value was about 12.
Turning to `CC(C)=C[C@H]1C[C@H](C)[C@]2(CC[C@]3(C)C[C@H]4[C@H]5/C(=C\C[C@H]32)C(O)O[C@H]5C[C@@]4(C)O)O1` (stereo partly specified), the selectivity ratio in [1] was about 2.2. The half-inhibitory concentration (IC50) is 22.5 µM in [2], 39.6 µM in the data set on MCF7, 50.2 µM in data set [4] and 157 µM in the data set with MDA-MB-231. Besides, the “Ratio IC50” value in data set [3] is given as ~ 0.25.
In the case of `CC(C)=C[C@H]1C[C@H](C)[C@]2(CC[C@]3(C)C[C@H]4[C@@H](/C(CO)=C\C[C@H]32)[C@@H](O)C[C@@]4(C)O)O1`, the selectivity ratio in data set [1] was about 1. The IC50 in data set [2] was 134 µM; in the data set on MCF7, 387 µM; in data set [5], over 1000 µM; in [4], 140 µM; with T98G, over 1000 µM; with MDA-MB-231, 384 µM. The “Ratio IC50” value in [3] was ~ 1.
On to `CC(C)=C[C@H]1C[C@H](C)[C@]2(CC[C@]3(C)C[C@H]4[C@H]5[C@@H](CC[C@H]32)[C@H](O)O[C@H]5C[C@@]4(C)O)O1`, for which the selectivity ratio in [1] is about 0.47. The IC50 worked out at 123 µM in data set [2]; 149 µM with MCF7; 363 µM in data set [5]; 58.1 µM in data set [4]; 444 µM in the data set on T98G; 136 µM with MDA-MB-231. For the same molecule, the “Ratio IC50” value in data set [3] is reported as ~ 1.1; in data set [6], about 1.2.
On to `COc1cccc2c1C(=O)c1c(O)c3c(c(O)c1C2=O)C[C@@](O)(C(=O)CO)C[C@@H]3O[C@H]1C[C@H](N)[C@H](O)[C@H](C)O1` [DOXORUBICIN], for which the result with HMLE was inactive. For the same molecule, the Activity in data set [7] is reported as under 50%.
